This is an account of results in patent US20180258180A1, “COMBINATION THERAPY INVOLVING ANTIBODIES AGAINST CLAUDIN 18.2 FOR TREATMENT OF CANCER” (Ganymed Pharmaceuticals AG, priority 2012, published 2018).

Series [1] relates to KatoIII cells. The series is described as follows: Cell cycle analysis of KatoIII cells treated with cytostatic compounds. It is filed as cell-based, human. The conditions noted are these: for cell cycle phase in which cells are predominantly arrested/enriched: KatoIII cells, 96 hours; for cell cycle arrest phase: KatoIII cells pretreated for 4 days. Here is the method:
(§1) KatoIII cells, a human gastric tumor cell line, was cultivated in RPMI 1640 medium (Invitrogen) containing 20% FCS (Perbio) and 2 mM Glutamax (Invitrogen) at 37° C. and 5% CO2, with or without cytostatic compounds. Epirubicin (Pfizer) was tested at a concentration of 10 or 100 ng/ml, 5-FU (Neofluor from NeoCorp AG) was tested at a concentration of 10 or 100 ng/ml, and oxaliplatin (Hospira) was tested at a concentration of 50 or 500 ng/ml. A combination of all 3 compounds (EOF; epirubicin 10 ng/ml, oxaliplatin 500 ng/ml, 5-FU 10 ng/ml) was also used. 8×10^5 KatoIII cells were cultivated for 96 hours without medium change or for 72 hours followed by 24 hours cultivation in standard medium to release cells from cell cycle arrest in a 6-well tissue culture plate at 37° C., 5% CO2. Cells were harvested with EDTA/trypsin, washed and analysed.
Cell cycle stages were determined based on measurement of cellular DNA content. This allows one to discriminate between cells in the G1-, S- or G2-phase of the cell cycle. In the S-phase DNA duplication occurs whereas in the G2-phase cells grow and prepare for mitosis. Cell cycle analysis was done using the CycleTEST PLUS DNA Reagent Kit from BD Biosciences following the manufacturer's protocol. Flow cytometry acquisition and analysis were performed by using BD FACS CantoII (BD Biosciences) and FlowJo (Tree Star) software.
(§2) KatoIII cells were pretreated for 4 days with Irinotecan or Docetaxel and analysed for CLDN18.2 expression and cell cycle arrest.

For a further series, the system named is CLDN18.2. The series is described as follows: Extracellular detection of CLDN18.2 on treated KatoIII cells by flow cytometry. The class given is cell-based, human. As to conditions: 96 hours, FIG. 1. Here is the method: as §1
As secondary reagent goat-anti-huIgG-APC from Dianova was used.

Series [2] concerns KatoIII cells. Description: IMAB362 induced ADCC / viability of pretreated KatoIII cells (luciferase). It is filed as cell-based, human. As to conditions: KatoIII pretreated for 3 days; for level of viable cells compared to medium cultivated target cells: Irinotecan 1000 ng/ml, Docetaxel 5 ng/ml, Cisplatin 2000 ng/ml. As to the method:
Peripheral blood mononuclear cells (PBMCs) including NK cells, monocytes, mononuclear cells or other effector cells from healthy human donors were purified by Ficoll Hypaque density centrifugation. Washed effector cells were seeded in X-Vivo medium. KatoII cells which express CLDN18.2 endogenously and are of gastric origin were used as target cells in this setting. Target cells stably expressed luciferase, lucifer yellow, which is oxidized by viable cells only.

Series [3] deals with KatoIII cells. The series is described as follows: Cell growth of KatoIII cells pretreated with Irinotecan or Docetaxel. It is filed as cell-based, human. As to conditions: KatoIII cells pretreated for 4 days.
From the text: as §2

The next series concerns claudin18.2. Description: claudin18.2 expression in pretreated KatoIII cells. The conditions noted are these: KatoIII pretreated for 3 days; Irinotecan 1000 ng/ml, Docetaxel 5 ng/ml, Cisplatin 2000 ng/ml. The class given is cell-based, human.
For series [4], the system named is HEK293~CLDN18.2 transfectants. The series is described as follows: Early treatment of HEK293~CLDN18.2 tumor xenografts. The class given is in vivo, nude mice. As to conditions: isotype control, twice per week for 6 weeks. From the text: Moreover, advanced tumor treatment experiments were initiated up to 9 days after tumor cell inoculation when tumors had reached volumes of about 60-120 mm^3.
Nude mice were subcutaneously inoculated with 1×10^7 HEK293˜CLDN18.2 transfectants. Treatment of 10 mice per group started 3 days after tumor inoculation. […] Not only time to death was prolonged, but 4 of 10 mice survived the entire observation period of 210 days.

The subject of a further series is NUGC-4 xenografts. The series is described as follows: Biodistribution of Dyelight 680-labeled antibodies in NUGC-4 xenografted nude mice. The conditions noted are these: negative control, NUGC-4 negative for CD20.
The next series has as its system NUGC-4. It is filed as cell-based, human. As to the method:
(§3) Furthermore, human stomach cancer cells (NUGC-4-luciferase) and murine stomach cancer cells (CLS103-calcein stained) were pretreated with or w/o 5 μM ZA for 2 days. Human Vγ9Vδ2 T cells were MACS purified (day 14) and co-cultured with the cancer cells for 24 h. Cytotoxicity of Vγ9V52 T cells towards non-treated and ZA-treated target cells was determined by measuring remaining luciferase activity or calcein fluorescence; cf. FIG. 11b. Target cells (NUGC-4 and CLS103) were pretreated with or w/o 5 μM ZA for 2 days and subsequently incubated for 4 h with mitomycin c ([…]) to stop proliferation. MACS purified human 14d old resting Vγ9V62 T cells and ^3H-thymidine were added to the target cells and co-cultures were incubated for 48 h at 37° C. Proliferation was determined by measuring ^3H thymidine incorporation in the DNA using a MicroBeta scintillation counter. Proliferation of target cells not treated with ZA and w/o Vγ9Vδ2 T cells was set to 100%; cf. FIG. 11c.

A further series deals with Vγ9Vδ2 T cells. Description: Enrichment of Vγ9Vδ2 T cells co-cultured with monocytes ± ZA. The class given is cell-based, human. The conditions noted are these: co-culture 14 days, ±1 μM ZA. Here is the method: The enrichment of Vγ9Vδ2 T cells in the co-cultures after 14 days was determined by multicolor FACS, whereas the expansion of the culture was considered in the calculation. The enrichment factor of Vγ9Vδ2 T cells cultured with monocytes in a 1:4 ratio was set to 100% for each experiment. […] This effect was clearly ZA-dependent; cf. FIG. 11a.

A further series concerns PBMCs. Description: Expansion of PBMC cultures with ZA/IL-2. It is filed as cell-based, human. As to conditions: 14 days, 300 U/ml IL-2. As to the method: PBMCs were harvested from healthy human donors and cultures were treated with a single dose of ZA. […] FIG. 8a. […] FIG. 8b. Increase in cell numbers was determined by counting living cells on day 6, 8, 11 and 14.
The test system of a further series is CLS103. As to the method: as §3
The target in series [5] is Claudin 18 splice variant 2 (CLDN18.2), human (human).

Turning to `O=c1[nH]cc(F)c(=O)[nH]1` [5-FU, 5-fluoro-1H-pyrimidine-2,4-dione], the “cell cycle phase in which cells are predominantly arrested/enriched” value in the series with KatoIII cells [1] was “S-phase”. In the series on CLDN18.2, the CLDN18.2-expression entry is given as “stabilize”.

For the molecule `CCc1c2c(nc3ccc(OC(=O)N4CCC(N5CCCCC5)CC4)cc13)-c1cc3c(c(=O)n1C2)COC(=O)[C@]3(O)CC` [Irinotecan, (S)-4,11-diethyl-3,4,12,14-tetrahydro-4-hydroxy-3,14-dioxo1H-pyrano[3′,4′:6,7]-indolizino[1,2-b]quinolin-9-yl-[1,4′bipiperidine]-1′-carboxylate], in the series on KatoIII cells [2], the “potency of IMAB362 to induce ADCC after pretreatment of target cells” value (shortened to “potency of IMAB362 to induce ADCC”) was “augmented” and the “level of viable cells compared to medium cultivated target cells” value is listed as “lower level of viable cells”. In the series on KatoIII cells [3], the cell growth entry is “dose dependent inhibition”. Moreover, the “cell cycle arrest phase” value in the series on KatoIII cells [1] is “S/G2-phase”. In the series with claudin18.2, the “claudin18.2 expression compared to medium cultivated cells” value is listed as “increased”.

Consider “infliximab: isotype control antibody [reference compound]”, for which the “time within which all mice died” value in [4] lay within 70 to 80 days.

In the case of “rituximab: Dyelight 680-labeled negative control antibody (NUGC-4 negative for CD20) [reference compound]”, in the series on NUGC-4 xenografts, the “signal of labeled antibody in NUGC-4 engrafted mice” value was “No signal is detected”.

Take `CC(=O)O[C@@]12CO[C@@H]1C[C@H](O)[C@@]1(C)C(=O)[C@H](O)C3=C(C)[C@@H](OC(=O)[C@H](O)[C@@H](NC(=O)OC(C)(C)C)c4ccccc4)C[C@@](O)([C@@H](OC(=O)c4ccccc4)[C@H]21)C3(C)C` [Docetaxel, docetaxel]: in the series with KatoIII cells [2], the “potency of IMAB362 to induce ADCC” value is recorded as “augmented” and the “level of viable cells compared to medium cultivated target cells” value is “lower level of viable cells”. The cell growth result in the series on KatoIII cells [3] is on record as “dose dependent inhibition”. Also, in the series with KatoIII cells [1], the “cell cycle arrest phase” value is recorded as “G2-phase”. In the series with claudin18.2, the “claudin18.2 expression compared to medium cultivated cells” value was “increased”.

As for `COc1cccc2c1C(=O)c1c(O)c3c(c(O)c1C2=O)C[C@@](O)(C(=O)CO)C[C@@H]3O[C@H]1C[C@H](N)[C@@H](O)[C@H](C)O1` [Epirubicin], the “cell cycle phase in which cells are predominantly arrested/enriched” value with KatoIII cells [1] was “G2-phase”. Further, in the series with CLDN18.2, the CLDN18.2-expression result is listed as “stabilize”.

Turning to `O=P(O)(O)C(O)(Cn1ccnc1)P(=O)(O)O` [ZA, [1-hydroxy-2-(1H-imidazol-1-yl)ethane-1,1-diyl]bis(phosphonic acid)], the “activation of Vγ9Vδ2 T cell cytotoxicity by ZA-pulsed cancer cells” value in the series with NUGC-4 is 5-10 fold. Moreover, in the series with NUGC-4 (5 μM ZA for 2 days, co-culture 48 h, 3H-thymidine), the “activation of Vγ9Vδ2 T cell proliferation by ZA-pulsed cancer cells” value is reported as 1.4-1.8 fold. Moreover, the “enrichment of Vγ9Vδ2 T cells with increase of monocytes, ZA-dependent” value in the series on Vγ9Vδ2 T cells is given as “more than 10 fold”. For the same molecule, in the series on PBMCs, the “expansion of cells in medium without ZA compared to with ZA (lower)” value is given as “about 2 fold”. In addition, in the series with CLS103, the “activation of Vγ9Vδ2 T cells (cytotoxicity and proliferation) by ZA-pulsed cancer cells” value is recorded as “failed to elicit these effects”.

For the molecule IMAB362 (antibody), in [5], the EC50 (read off the curve), ADCC on KatoIII cells pretreated 3 days with Irinotecan (Irino imab362) is 1 µg/mL and the EC50 (read off the curve), ADCC on medium-cultivated KatoIII cells (Med imab362) came out at 2 µg/mL.

On to `N.N.[Cl][Pt][Cl]` [Cisplatin, cis-diamminedichloroplatinum(II)], for which, in the series on KatoIII cells [2], the “potency of IMAB362 to induce ADCC” value is listed as “augmented” and the “level of viable cells compared to medium cultivated target cells” value is “lower level of viable cells”. Besides, the “claudin18.2 expression compared to medium cultivated cells” value in the series on claudin18.2 is reported as “increased”.

Regarding `O=C1[O][Pt]2([NH][C@@H]3CCCC[C@H]3[NH]2)[O]C1=O` [Oxaliplatin, [(1R,2R)-cyclohexane-1,2-diamine](ethanedioato-O,O′)platinum(II)], the “cell cycle phase in which cells are predominantly arrested/enriched” value in the series with KatoIII cells [1] is “G1- and G2-phases”.
